This test concerns SK-OV-3 cells. The experiment in a line: Effect of compounds on tryptophan catabolism in SK-OV-3 cell line (inhibition of kynurenine production, LC-MS/MS). Type of test: cell-based. The note with it: Homo sapiens, SK-OV-3, 24 h, SK-OV-3 cell line, 24 h incubation, kynurenine in supernatant by LC-MS/MS; read-out: IC50 Ranges (ic50 values for inhibition of Kynurenine production). As to the method:
SK-OV-3 cells are seeded in 96-well plates in McCoy's 5A medium supplemented with 10% FBS and incubated overnight at 37° C., 5% CO2, 95% humidity. The […] growth medium is replaced with DMEM F-12 medium supplemented with 6 mg/mL L-tryptophan. Compounds are added to the wells and incubated for 24 h at 37° C., 5% CO2, 95% humidity. Compounds are tested at 8 consecutive 3-fold dilutions starting from 30 μM in duplicate. At the end of incubation, concentration of kynurenine in cell supernatants is […] determined by LC-MS/MS. In parallel, cell viability is assessed by measurement of ATP using CellTiter Glo assay (Promega), according to manufacturer's protocol. Inhibition of Kyn production is calculated using the following formula: […] IC50 ranges for compounds of the invention are presented in Table 2, whereby the IC50 ranges are as follows: • A: […]

This passage reports IC50 results from patent US20210238139A1, “MODULATORS OF TRYPTOPHAN CATABOLISM” (E-Therapeutics PLC, priority 2018, published 2021).

By IC50 is commonly meant the midpoint of a concentration-inhibition curve.

Regarding `N#Cc1ccc(CN(C(=O)Nc2ccc(F)cc2)C2CCCC2)o1` [Compound 61, 1-[(5-cyano-2-furyl)methyl]-1-cyclopentyl-3-(4-fluorophenyl)urea], the IC50 was over 5 µM. Turning to `CCCN(Cc1ccc(C)o1)C(=O)Nc1ccccc1` [Compound 166, 1-[(5-methyl-2-furyl)methyl]-3-phenyl-1-propyl-urea], the IC50 was in the range of 0.5 to 1 µM. The result for `Cc1ccc(CN(C(=O)Nc2ccc3c(c2)CNC3=O)C2CCCC2)o1` [Compound 307] reads over 5 µM.

Take `O=C(Nc1ccc(F)cc1)N(Cc1ccccn1)C1CCCC1` [Compound 68, 1-cyclopentyl-3-(4-fluorophenyl)-1-(2-pyridylmethyl)urea]: the IC50 lay in the range of 1 to 5 µM.

Regarding `Cc1ncc(CN(C(=O)Nc2ccc(F)cc2)C2CCCC2)o1` [Compound 145, 1-cyclopentyl-3-(4-fluorophenyl)-1-[(2-methyloxazol-5-yl)methyl]urea], the IC50 lay within 1 to 5 µM.

As to `C#Cc1ccc(NC(=O)N(Cc2ccno2)C2CCCC2)cc1` [Compound 163, 1-cyclopentyl-3-(4-ethynylphenyl)-1-(isoxazol-5-ylmethyl)urea], the IC50 is under 0.1 µM. In the case of `Cc1ccc(CN(C(=O)Nc2nc(-c3ccccn3)cs2)C2CCCC2)o1` [Compound 133, 1-cyclopentyl-1-[(5-methyl-2-furyl)methyl]-3-[4-(2-pyridyl)thiazol-2-yl]urea], the IC50 lay within 0.1 to 0.5 µM. With `CC(=O)N1CCC(C)(CN(C(=O)Nc2ccccc2)C2CCCC2)CC1` [Compound 97, 1-[(1-acetyl-4-methyl-4-piperidyl)methyl]-1-cyclopentyl-3-phenyl-urea] the figure was 1 to 5 µM; with `O=C(Nc1ccc(F)cc1)N(Cc1cnccn1)C1CCCC1` [Compound 70, 1-cyclopentyl-3-(4-fluorophenyl)-1-(pyrazin-2-ylmethyl)urea], over 5 µM; with `Cc1ccc(CN(C(=O)Nc2ccccc2)C2CCCC2)o1` [Compound 176, 1-cyclopentyl-1-[(5-methyl-2-furyl)methyl]-3-phenyl-urea], 0.1 to 0.5 µM. Turning to `Cc1ccc(CN(C(=O)Nc2ccc(Cl)cc2)C2CC(F)(F)C2)o1` [Compound 247, 3-(4-chlorophenyl)-1-(3,3-difluorocyclobutyl)-1-[(5-methyl-2-furyl)methyl]urea], the IC50 was 0.1 to 0.5 µM. The result for `Cc1ccc(CN(C(=O)Nc2ccc(Cl)cc2)[C@H]2C[C@@H](F)C2)o1` [Compound 271, 3-(4-chlorophenyl)-1-(3-fluorocyclobutyl)-1-[(5-methyl-2-furyl)methyl]urea] reads 0.1 to 0.5 µM; that for `O=C(Nc1ccc(Cl)cc1Cl)N(Cc1cccs1)C1CCCC1` [Compound 59, 1-cyclopentyl-3-(2,4-dichlorophenyl)-1-(2-thienylmethyl)urea], 0.5 to 1 µM.

Take `O=C(Nc1ccc(C(F)(F)F)cc1)N(Cc1cccs1)C1CCCC1` [Compound 13, 1-cyclopentyl-1-(2-thienylmethyl)-3-[4-(trifluoromethyl)phenyl]urea]: the IC50 lay in the range of 1 to 5 µM. The result for `Cc1ccc(CN(C(=O)Nc2ccc(C#N)cc2)C2CC3(COC3)C2)o1` [Compound 287, 3-(4-cyanophenyl)-1-[(5-methyl-2-furyl)methyl]-1-(2-oxaspiro[3.3]heptan-6-yl)urea] reads over 5 µM. Take `O=C(Nc1ccc(Cl)cc1)N(Cc1ccccn1)C1CCCC1` [Compound 69, 3-(4-chlorophenyl)-1-cyclopentyl-1-(2-pyridylmethyl)urea]: the IC50 was in the range of 0.1 to 0.5 µM. With `Cc1ccc(CN(C(=O)Nc2ccc(C#N)cc2)c2ccccn2)o1` [Compound 283, 3-(4-cyanophenyl)-1-[(5-methyl-2-furyl)methyl]-1-(2-pyridyl)urea] the figure was 1 to 5 µM. As for `CC(C)(C)OC(=O)N1CCC(CN(C(=O)Nc2ccc(Cl)cc2)C2CCCC2)CC1` [Compound 120, tert-butyl 4-[[(4-chlorophenyl)carbamoyl-cyclopentyl-amino]methyl]piperidine-1-carboxylate], the IC50 is 0.1 to 0.5 µM. With `O=C(NCCc1ccccc1)N(Cc1cccs1)C1CCCC1` [Compound 1, 1-cyclopentyl-3-(2-phenylethyl)-1-(2-thienylmethyl)urea] the figure was 1 to 5 µM; with `N#Cc1ccnc(CN(C(=O)Nc2ccc(Cl)cc2)C2CCCC2)c1` [Compound 116, 3-(4-chlorophenyl)-1-[(4-cyano-2-pyridyl)methyl]-1-cyclopentyl-urea], 0.1 to 0.5 µM. As to `N#Cc1ccc(NC(=O)N(Cc2cn3ccncc3n2)C2CCC2)cc1` [Compound 211, 3-(4-cyanophenyl)-1-cyclobutyl-1-(imidazo[1,2-a]pyrazin-2-ylmethyl)urea], the IC50 was over 5 µM.

`Cc1ccc(CN(C(=O)Nc2ccc(Cl)cc2)C2CCCC2(F)F)o1` (stereo not drawn) [Compound 206, 3-(4-chlorophenyl)-1-(2,2-difluorocyclopentyl)-1-[(5-methyl-2-furyl)methyl]urea]: the IC50 is under 0.1 µM. For the molecule `N#Cc1ccc(NC(=O)N(Cc2nc3c(s2)COCC3)C2CCCC2)cc1` [Compound 310, 3-(4-cyanophenyl)-1-cyclopentyl-1-(6,7-dihydro-4H-pyrano[4,3-d]thiazol-2-ylmethyl)urea], the IC50 is 1 to 5 µM. The result for `Cc1ccc(CN(C(=O)Nc2ccc(C#N)cc2)c2ncccn2)o1` [Compound 324, 3-(4-cyanophenyl)-1-[(5-methyl-2-furyl)methyl]-1-pyrimidin-2-yl-urea] reads over 5 µM; that for `N#Cc1cc(CN(C(=O)Nc2ccc(F)c(F)c2)C2CCCC2)ccc1F` [Compound 52, 1-[(3-cyano-4-fluoro-phenyl)methyl]-1-cyclopentyl-3-(3,4-difluorophenyl)urea], under 0.1 µM.

For `Cc1ccc(CN(C(=O)Nc2ccc(C(F)(F)F)nc2)C2CCCC2)o1` [Compound 228, 1-cyclopentyl-1-[(5-methyl-2-furyl)methyl]-3-[6-(trifluoromethyl)-3-pyridyl]urea], the IC50 was 0.1 to 0.5 µM.

On to `N#Cc1ccc(NC(=O)N(Cc2ccc3ocnc3c2)C2CCC2)cc1` [Compound 223, 1-(1,3-benzoxazol-5-ylmethyl)-3-(4-cyanophenyl)-1-cyclobutyl-urea], for which the IC50 lay in the range of 0.1 to 0.5 µM. The result for `O=C(NCCc1ccccc1)N(Cc1ccco1)C1CCCC1` [Compound 29, 1-cyclopentyl-1-(2-furylmethyl)-3-(2-phenylethyl)urea] reads over 5 µM; that for `Cc1ccc(C(C)N(C(=O)Nc2ccc(F)cc2)C2CCCC2)o1` (racemic) [Compound 191, 1-cyclopentyl-3-(4-fluorophenyl)-1-[1-(5-methyl-2-furyl)ethyl]urea], 0.5 to 1 µM; that for `Cc1ccc(CN(C(=O)Nc2ccc(C#N)cc2)c2c(C)noc2C)o1` [Compound 230, 3-(4-cyanophenyl)-1-(3,5-dimethylisoxazol-4-yl)-1-[(5-methyl-2-furyl)methyl]urea], 0.1 to 0.5 µM. With `Cc1ccc(CN(C(=O)Nc2nc(C#N)cs2)C2CCCC2)o1` [Compound 135, 3-(4-cyanothiazol-2-yl)-1-cyclopentyl-1-[(5-methyl-2-furyl)methyl]urea] the figure was 1 to 5 µM. Take `Cc1ccc(CN(C(=O)Nc2nnc(-c3cc4ccccc4o3)o2)C2CCCC2)o1` [Compound 151, 3-[5-(benzofuran-2-yl)-1,3,4-oxadiazol-2-yl]-1-cyclopentyl-1-[(5-methyl-2-furyl)methyl]urea]: the IC50 lay in the range of 0.5 to 1 µM. The result for `Cc1ccc(CN(C(=O)Nc2ccc(C#N)cc2)c2ncnn2C)o1` [Compound 266, 3-(4-cyanophenyl)-1-[(5-methyl-2-furyl)methyl]-1-(2-methyl-1,2,4-triazol-3-yl) urea] reads 1 to 5 µM. With `Cc1ccc(CN(C(=O)Nc2cccc(C#N)c2)C2CCCC2)o1` [Compound 93, 3-(3-cyanophenyl)-1-cyclopentyl-1-[(5-methyl-2-furyl)methyl]urea] the figure was 1 to 5 µM; with `O=C(Nc1ccc(Cl)cc1)N(Cc1ccno1)C1CCCC1` [Compound 128, 3-(4-chlorophenyl)-1-cyclopentyl-1-(isoxazol-5-ylmethyl)urea], 0.5 to 1 µM; with `N#Cc1ccc(NC(=O)N(Cc2nc3ccccc3s2)C2CCC2)cc1` [Compound 229, 1-(1,3-benzothiazol-2-ylmethyl)-3-(4-cyanophenyl)-1-cyclobutyl-urea], 0.1 to 0.5 µM.

As to `O=C(NCCc1ccccc1)N(Cc1ccccn1)C1CCCCC1` [Compound 20, 1-cyclohexyl-3-(2-phenylethyl)-1-(2-pyridylmethyl)urea], the IC50 is over 5 µM. The result for `Cc1ccc(CN(C(=O)Nc2ccc(Cl)cc2)c2c(C)noc2C)o1` [Compound 238, 3-(4-chlorophenyl)-1-(3,5-dimethylisoxazol-4-yl)-1-[(5-methyl-2-furyl)methyl]urea] reads 0.1 to 0.5 µM; that for `Cc1ccc(CN(C(=O)Nc2ccc(Cl)cc2)c2cnc[nH]2)o1` [Compound 183, 3-(4-chlorophenyl)-1-(1H-imidazol-5-yl)-1-[(5-methyl-2-furyl)methyl]urea], 1 to 5 µM; that for `O=C(Nc1ccc(Cl)cc1)N(Cc1nc2ccccc2s1)C1CCC1` [Compound 248, 1-(1,3-benzothiazol-2-ylmethyl)-3-(4-chlorophenyl)-1-cyclobutyl-urea], 0.1 to 0.5 µM. The result for `N#Cc1ccc(NC(=O)N(Cc2cc3ncccc3o2)C2CCC2)cc1` [Compound 249, 3-(4-cyanophenyl)-1-cyclobutyl-1-(furo[3,2-b]pyridin-2-ylmethyl)urea] reads over 5 µM; that for `Cc1ccc(CN(C(=O)Nc2ccc(Cl)cc2)c2nc3ccccc3s2)o1` [Compound 300, 1-(1,3-benzothiazol-2-yl)-3-(4-chlorophenyl)-1-[(5-methyl-2-furyl)methyl]urea], 1 to 5 µM.
